Assay results as given in the supplement of paper PMC11208160.

Test: recombinant barcode read abundance after kanamycin selection (control-corrected) (log10(CPM+1)); higher = more efficient recombination; sequences stand for … in AGTGCAGAGAAAATCGGCCAGTTTTCTCTGCCTGCAGTCCGCATGCCGT…AGATTTATGCAGCGGACTGCCTTTCTCCCAAAGTGATAAACCGGACAGTATCATGGACCGGTTTTCCCGGTAATCCGTATTTGCAAGGTTGGTTTCACT; site = the 11-nt target
In short: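 Targets were screened in pooled form in E. coli against IS621 bridge RNA target-binding loops. Recombination efficiency is based on barcode counts at recombinant junctions in counts per million, averaged and corrected for the control. Numbers are shown as log10(CPM+1), with duplicate plates on chloramphenicol/ampicillin LB agar (control) or chloramphenicol/ampicillin/kanamycin with 0.1 mM IPTG.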
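Note: IS621 recombinase and bridge RNA in Escherichia coli cells.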

Sequence | recombinant barcode read abundance (log10)
GGTCGCTCTTGGGTTCTAACCTGTTGCCT (site GGACGCTCTAG) | 0.0961
TGAACGTCTTGGGTTCTAACCTGTTGCCT (site TGAACGTCTAG) | 0.384
CTACAATCTTGGGTTCTAACCTGTTGCTT (site CTACAATCTAT) | 0.816
GAGGCTTCTTGGGTTCTAACCTGTTGCCT (site GCGGCTTCTAG) | 0.435
TACATCCCTTGGGTTCTAACCTGTTGCCC (site TACATCCCTTG) | 0.0347
GAGTCTACTTGGGTTCTAACCTGTTGCCG (site GAGTCTACTCG) | 0.562
CGTCGTACTTGGGTTCTAACCTGTTGCCT (site CGTCGTACTAG) | 0.136
GGGAACCCTTGGGTTCTAACCTGTTGCTC (site GGGAACCCTTA) | 0.509
TAGTGATCTTGGGTTCTAACCTGTTGCCT (site TAGTGATCTAG) | 0.783
TAGAATCCTTGGGTTCTAACCTGTTGCAG (site TAGAATCCTAT) | 0.0897
CTCCGTACTTGGGTTCTAACCTGTTGCAT (site CTCCGTACTAT) | 1.14
GGTCGAACTTGGGTTCTAACCTGTTGCCT (site GGTCTAACTAG) | 0.0343
TGTTGTCCTTGGGTTCTAACCTGTTGCTG (site TGTTGTCCTCA) | 0.0482
CTCCGTCCTTGGGTTCTAACCTGTTGCTT (site CTCCGCCCTAA) | 0.111
CAGCCACCTTGGGTTCTAACCTGTTGCCT (site GAGCCACCTAG) | 0.0262
GGGTCCACTTGGGTTCTAACCTGTTGCAT (site GGGTCCACTAA) | 0.481
GCCGATTCTTGGGTTCTAACCTGTTGCCT (site ACCGATTCTAT) | 0.0154
TAACCTTCTTGGGTTCTAACCTGTTGCCT (site TAACCTTCTAG) | 0.472
GCTTTACCTTGGGTTCTAACCTGTTGCCT (site ACTTTACCTAG) | 0.0836
GGTAAGACTTGGGTTCTAACCTGTTGCCT (site GGAAAGACTAG) | 0.31
GCTTGAGCTTGGGTTCTAACCTGTTGCCT (site GCCTGAGCTAG) | 0.158
ACAGTTACTTGGGTTCTAACCTGTTGCAT (site ACAGTTACTAT) | 1.29

Sequence | recombinant barcode read abundance (log10)
TGTTCTACTTGGGTTCTAACCTGTTGCTT (site TGCTCTACTAA) | 0.246
GTACGCTCTTGGGTTCTAACCTGTTGCTT (site GTACGCTCTAA) | 0.218
GGACATGCTTGGGTTCTAACCTGTTGCGT (site GGACATGCTAC) | 2.7
AGGCTGTCTTGGGTTCTAACCTGTTGCCT (site AGGCTGTCTAG) | 1.84
CACCAAACTTGGGTTCTAACCTGTTGCCT (site CACCAACCTAG) | 0.0986
AGTAGAACTTGGGTTCTAACCTGTTGCCT (site AGTAGAACTAG) | 0.387
GGTCCTACTTGGGTTCTAACCTGTTGCCT (site GCTCCTACTAG) | 0.0585
AGGCTGTCTTGGGTTCTAACCTGTTGCCT (site AGGCTGGCTAG) | 0.0597
TATTGCCCTTGGGTTCTAACCTGTTGCCT (site TATTGCCCTAG) | 0.117
GTAAGTACTTGGGTTCTAACCTGTTGCCA (site ATAAGTCCTTG) | 0.063
GTGAGTGCTTGGGTTCTAACCTGTTGCCA (site GTGAGTGCTTG) | 0.723
TAGGCGCCTTGGGTTCTAACCTGTTGCAT (site TAGGCGCCTAC) | 0.723
GGCACCACTTGGGTTCTAACCTGTTGCCT (site GGCACAACTAG) | 0.0402
GATCCGTCTTGGGTTCTAACCTGTTGCGG (site GGTCCGGCTCC) | 0.551
CTCCCATCTTGGGTTCTAACCTGTTGCGT (site CTCCCATCTAC) | 0.874
CGTTCGACTTGGGTTCTAACCTGTTGCCT (site CGTTCGACTAG) | 0.0748
CGGGCGCCTTGGGTTCTAACCTGTTGCGG (site CGGCCGACTCC) | 0.0157
GTGTCGCCTTGGGTTCTAACCTGTTGCGT (site GTGTCGCCTAC) | 1.72
GCCAAACCTTGGGTTCTAACCTGTTGCCT (site GCCAGACCTAG) | 0.458
AGGGTTCCTTGGGTTCTAACCTGTTGCTT (site AGGGTTCCTAA) | 2.05
ATTTGGACTTGGGTTCTAACCTGTTGCCT (site ATTTGCACTAG) | 0.0773
TTCGTTGCTTGGGTTCTAACCTGTTGCCT (site GTCGTTGCTAG) | 0.0105

Sequence | recombinant barcode read abundance (log10)
TGAGAGGCTTGGGTTCTAACCTGTTGCCT (site TGAGCGGCTAG) | 0.173
GTCGTCGCTTGGGTTCTAACCTGTTGCCT (site GTCGTCTCTAG) | 0.0427
TAAAGGCCTTGGGTTCTAACCTGTTGCTA (site CAAAGGTCTTA) | 0.218
TAGCCCTCTTGGGTTCTAACCTGTTGCCG (site TAGTCCGCTCG) | 0.023
GTATGGTCTTGGGTTCTAACCTGTTGCGT (site GTATGGTCTAC) | 2.98
ATGCATCCTTGGGTTCTAACCTGTTGCCT (site ATGCATCCTAG) | 1.99
TCGGTGACTTGGGTTCTAACCTGTTGCCT (site CCGGTGACTAG) | 0.0364
ATTAGGACTTGGGTTCTAACCTGTTGCTG (site ATTAGGACTCA) | 2.12
CCGTAACCTTGGGTTCTAACCTGTTGCCT (site CCGTAAGCTAG) | 0.00896
TGTCTCCCTTGGGTTCTAACCTGTTGCCG (site TGTCTCCCTCG) | 0.261
CGTCGTACTTGGGTTCTAACCTGTTGCCT (site CGCCGTACTAG) | 0.0657
TTCTATCCTTGGGTTCTAACCTGTTGCCT (site TTCTCTCCTAG) | 0.286
GTGAGGTCTTGGGTTCTAACCTGTTGCTT (site GTGAGGTCTAT) | 1.38
GATAGGCCTTGGGTTCTAACCTGTTGCTT (site AATTGGCCTAA) | 0.0314
GGGTCCTCTTGGGTTCTAACCTGTTGCCG (site GGGTCCTCTGG) | 0.422
CGAGAACCTTGGGTTCTAACCTGTTGCCT (site AGAGAACCTAG) | 0.0999
TCAAACCCTTGGGTTCTAACCTGTTGCGG (site TCTAACCCTCC) | 0.279
TTCAAAACTTGGGTTCTAACCTGTTGCCT (site TTCAAAGCTAG) | 0.0504
GAGTCTACTTGGGTTCTAACCTGTTGCCA (site CCTATAGCTAA) | 0.0951
CCTGGGACTTGGGTTCTAACCTGTTGCGG (site CCTGGGACTAC) | 0
GTATGACCTTGGGTTCTAACCTGTTGCCT (site GTATGAACTAG) | 0.0455
GTCTTGACTTGGGTTCTAACCTGTTGCCA (site GTCTTGACTTG) | 0.102

Sequence | recombinant barcode read abundance (log10)
ACCTACTCTTGGGTTCTAACCTGTTGCTT (site AGCTACCCTAA) | 0.315
TACTATACTTGGGTTCTAACCTGTTGCCT (site TACTATTCTAG) | 0.149
TGATTGACTTGGGTTCTAACCTGTTGCTT (site GATGCACCTCC) | 0.194
GTATGACCTTGGGTTCTAACCTGTTGCCT (site GTATGAGCTAG) | 0.0609
AGAACACCTTGGGTTCTAACCTGTTGCTT (site GAGGAGTCTCG) | 0.13
GGGTTCACTTGGGTTCTAACCTGTTGCCG (site GGGTTCACTCG) | 1.43
GGCTGCCCTTGGGTTCTAACCTGTTGCCT (site GACTGCCCTAG) | 0.156
CTACGTCCTTGGGTTCTAACCTGTTGCTT (site CTACGTCCTGA) | 0.297
CGGATCCCTTGGGTTCTAACCTGTTGCCT (site CAGATCCCTAG) | 0.555
TCTCGGCCTTGGGTTCTAACCTGTTGCCT (site TCTCTGCCTAG) | 0.0561
AGGCCGTCTTGGGTTCTAACCTGTTGCGG (site AGGCCGTCTCC) | 0.815
TTGACATCTTGGGTTCTAACCTGTTGCCT (site TTGAGATCTAG) | 0.0391
TCCACAGCTTGGGTTCTAACCTGTTGCCT (site TCCACATCTAG) | 0
TAGCTCCCTTGGGTTCTAACCTGTTGCCT (site TAGCTCCCTTG) | 0.016
CAAACTCCTTGGGTTCTAACCTGTTGCAT (site CAAACTCCTAG) | 0.0257
CCATACTCTTGGGTTCTAACCTGTTGCTT (site CCATGGTCTAA) | 0
TCCCAGTCTTGGGTTCTAACCTGTTGCTG (site TCCCAGTCTCA) | 0.635
ACCCGTACTTGGGTTCTAACCTGTTGCCT (site ACCGGTACTAG) | 0.0386
CTCTTGGCTTGGGTTCTAACCTGTTGCCT (site CTCTTGGCTAG) | 0.0663
GAGTATGCTTGGGTTCTAACCTGTTGCCT (site GAGTATGCTAG) | 1.72
